Reference: ChEMBL document CHEMBL1132104, “Synthesis and SAR of thioester and thiol inhibitors of IMP-1 metallo-beta-lactamase” (Bioorg Med Chem Lett, 1999)

Experiment: Inhibitory activity against IMP-1 metallo-beta-lactamase (MBL)

| IC50 [µM] | SMILES |
| --- | --- |
| 0.0013 | O=C(S[C@H](Cc1ccc2oc3ccccc3c2c1)C(=O)O)c1ccccc1 |
| 18 | C[C@@H](NC(=O)c1ccc2ccccc2c1)C(=O)S[C@H](Cc1ccc(-c2ccccc2)cc1)C(=O)O |
| 0.023 | O=C(O)[C@H](S)Cc1ccc2oc3ccccc3c2c1 |
| 55 | C[C@@H](NC(=O)Cc1ccc(N(C)C)cc1)C(=O)S[C@H](Cc1ccc(-c2ccccc2)cc1)C(=O)O |
| 74 | CC(=O)S[C@@H](Cc1ccc(-c2ccccc2)cc1)C(=O)O |
| 240 | C[C@@H](NC(=O)c1ccccc1)C(=O)SCC(=O)O |
| 13 | CCCCCC(=O)N[C@H](C)C(=O)S[C@H](Cc1ccc(-c2ccccc2)cc1)C(=O)O |
| 12 | COc1ccc(CC(=O)N[C@H](C)C(=O)S[C@H](Cc2ccc(-c3ccccc3)cc2)C(=O)O)cc1 |
| 4.7 | C[C@@H](NC(=O)CCC(=O)O)C(=O)S[C@H](Cc1ccc(-c2ccccc2)cc1)C(=O)O |
| 9.3 | CCCC(=O)N[C@H](C)C(=O)S[C@H](Cc1ccc(-c2ccccc2)cc1)C(=O)O |
| 1.5 | C[C@@H](NC(=O)c1ccccc1)C(=O)S[C@H](Cc1ccc2oc3ccccc3c2c1)C(=O)O |
| 3.1 | C[C@@H](NC(=O)Cc1ccc(O)cc1)C(=O)S[C@H](Cc1ccc(-c2ccccc2)cc1)C(=O)O |
| 2.5 | O=C(S[C@@H](Cc1ccccc1)C(=O)O)c1ccccc1 |
| 38 | COc1cccc(C(=O)N[C@H](C)C(=O)S[C@H](Cc2ccc(-c3ccccc3)cc2)C(=O)O)c1 |
| 4.4 | C=CCOC(=O)N[C@H](C)C(=O)S[C@H](Cc1ccc(-c2ccccc2)cc1)C(=O)O |
| 12 | CC(=O)S[C@H](Cc1ccccc1)C(=O)O |
| 0.084 | CC(=O)S[C@H](Cc1ccc(-c2ccccc2)cc1)C(=O)O |
| 20 | C[C@@H](NC(=O)c1ccccc1)C(=O)S[C@H](Cc1ccccc1)C(=O)O |
| 5.8 | C[C@@H](NC(=O)Cc1ccccc1)C(=O)S[C@H](Cc1ccc(-c2ccccc2)cc1)C(=O)O |

| IC50 [µM] | SMILES |
| --- | --- |
| 12 | C[C@@H](NC(=O)Cc1cccc2ccccc12)C(=O)S[C@H](Cc1ccc(-c2ccccc2)cc1)C(=O)O |
| 13 | C[C@@H](NC(=O)CSCC(=O)O)C(=O)S[C@H](Cc1ccc(-c2ccccc2)cc1)C(=O)O |
| 2 | CC(=O)N[C@H](C)C(=O)S[C@H](Cc1ccc2oc3ccccc3c2c1)C(=O)O |
| 24 | C[C@@H](NC(=O)Cc1ccccc1OCc1ccccc1)C(=O)S[C@H](Cc1ccc(-c2ccccc2)cc1)C(=O)O |
| 29 | COc1ccc(C(=O)N[C@H](C)C(=O)S[C@H](Cc2ccc(-c3ccccc3)cc2)C(=O)O)cc1 |
| 9.7 | CC(C)C(=O)N[C@H](C)C(=O)S[C@H](Cc1ccc(-c2ccccc2)cc1)C(=O)O |
| 1 | C[C@@H](NC(=O)COc1ccccc1)C(=O)S[C@H](Cc1ccc(-c2ccccc2)cc1)C(=O)O |
| 160 | CC(=O)S[C@@H](Cc1ccc2oc3ccccc3c2c1)C(=O)O |
| 50 | C[C@@H](NC(=O)CNC(=O)c1ccccc1)C(=O)S[C@H](Cc1ccc(-c2ccccc2)cc1)C(=O)O |
| 2.9 | C=CCOC(=O)N[C@H](C)C(=O)S[C@H](Cc1ccc2oc3ccccc3c2c1)C(=O)O |
| 0.00041 | O=C(S[C@H](Cc1ccc(-c2ccccc2)cc1)C(=O)O)c1ccccc1 |
| 430 | C[C@@H](NC(=O)c1ccccc1)C(=O)S[C@@H](Cc1ccc2oc3ccccc3c2c1)C(=O)O |
| 0.057 | O=C(O)[C@H](S)Cc1ccc(-c2ccccc2)cc1 |
| 4.8 | CCCCC(=O)N[C@H](C)C(=O)S[C@H](Cc1ccc(-c2ccccc2)cc1)C(=O)O |
| 49 | O=C(S[C@@H](Cc1ccc2oc3ccccc3c2c1)C(=O)O)c1ccccc1 |
| 5.3 | CC(C)CC(=O)N[C@H](C)C(=O)S[C@H](Cc1ccc(-c2ccccc2)cc1)C(=O)O |
| 11 | C[C@@H](NC(=O)/C=C/c1ccccc1)C(=O)S[C@H](Cc1ccc(-c2ccccc2)cc1)C(=O)O |
| 46 | COc1cc(OC)c(C(=O)N[C@H](C)C(=O)S[C@H](Cc2ccc(-c3ccccc3)cc2)C(=O)O)c(OC)c1 |
| 1.2 | O=C(O)[C@@H](S)Cc1ccc(-c2ccccc2)cc1 |

| IC50 [µM] | SMILES |
| --- | --- |
| 3.6 | C[C@@H](NC(=O)c1ccccc1)C(=O)S[C@H](Cc1ccc(-c2ccccc2)cc1)C(=O)O |
| 15 | C[C@@H](NC(=O)c1cccc(N(C)C)c1)C(=O)S[C@H](Cc1ccc(-c2ccccc2)cc1)C(=O)O |
| 0.064 | O=C(S[C@H](Cc1ccccc1)C(=O)O)c1ccccc1 |
| 63 | CC(=O)N[C@H](C)C(=O)S[C@H](Cc1ccccc1)C(=O)O |
| 33 | C/C=C/C(=O)N[C@H](C)C(=O)S[C@H](Cc1ccc(-c2ccccc2)cc1)C(=O)O |
| 0.25 | C[C@@H](NC(=O)CCC(=O)c1ccccc1)C(=O)S[C@H](Cc1ccc(-c2ccccc2)cc1)C(=O)O |
| 91 | C[C@@H](NC(=O)CCCC(=O)O)C(=O)S[C@H](Cc1ccc(-c2ccccc2)cc1)C(=O)O |
| 15 | C[C@@H](NC(=O)CCc1ccccc1)C(=O)S[C@H](Cc1ccc(-c2ccccc2)cc1)C(=O)O |
| 0.045 | CC(=O)S[C@H](Cc1ccc2oc3ccccc3c2c1)C(=O)O |
| 0.25 | O=C(O)[C@@H](S)Cc1ccc2oc3ccccc3c2c1 |
| 18 | CC(=O)N[C@H](C)C(=O)S[C@H](Cc1ccc(-c2ccccc2)cc1)C(=O)O |
| 32 | C[C@@H](NC(=O)Cc1cccnc1)C(=O)S[C@H](Cc1ccc(-c2ccccc2)cc1)C(=O)O |
| 64 | C=CCOC(=O)N[C@H](C)C(=O)S[C@H](Cc1ccccc1)C(=O)O |
| 740 | CC(=O)S[C@@H](Cc1ccccc1)C(=O)O |
| 3.7 | O=C(O)[C@@H](S)Cc1ccccc1 |
| 120 | O=C(S[C@@H](Cc1ccc(-c2ccccc2)cc1)C(=O)O)c1ccccc1 |
| 0.086 | O=C(O)[C@H](S)Cc1ccccc1 |
| 9.5 | CCC(=O)N[C@H](C)C(=O)S[C@H](Cc1ccc(-c2ccccc2)cc1)C(=O)O |
